The NIST ThermoML archive (doi:10.1021/acs.jced.6b00450)
± gives the expanded uncertainty stated by the source. Values belong to the compound of their own block, whether it stands above or below them.

What was measured:
[1] = for Normal melting temperature: Crystal, DTA; for Glass transition temperature: DSC; for viscosity / mass density: 101.33 kPa, Liquid; for viscosity: Concentric cylinders viscometry; for mass density: Vibrating tube method
[2] = refractive index (Na D-line) (dimensionless); details: 101.33 kPa, Liquid, Standard Abbe refractometry

SMILES: N#CCCn1cc[nH+]c1.O=S(=O)([O-])O [1-(2-cyanoethyl)imidazolium hydrogen sulfate]
viscosity ([1]; 293.15 K): 7937 ± 700 mPa·s | mass density ([1]; 293.15 K): 1429.4 ± 4 kg/m3 | viscosity ([1]; 303.15 K): 3102.2 ± 220 mPa·s | mass density ([1]; 303.15 K): 1423.3 ± 4 kg/m3 | viscosity ([1]; 313.15 K): 1397.9 ± 81 mPa·s | mass density ([1]; 313.15 K): 1417.4 ± 4 kg/m3 | viscosity ([1]; 323.15 K): 707.69 ± 33 mPa·s | mass density ([1]; 323.15 K): 1411.4 ± 4 kg/m3 | viscosity ([1]; 333.15 K): 394.22 ± 14 mPa·s | mass density ([1]; 333.15 K): 1405 ± 4 kg/m3 | viscosity ([1]; 343.15 K): 236.85 ± 6.5 mPa·s | mass density ([1]; 343.15 K): 1398.8 ± 4 kg/m3 | viscosity ([1]; 353.15 K): 151.62 ± 3 mPa·s | mass density ([1]; 353.15 K): 1393 ± 4 kg/m3 | viscosity ([1]; 363.15 K): 102.28 ± 1.4 mPa·s | mass density ([1]; 363.15 K): 1385.9 ± 4 kg/m3 | viscosity ([1]; 373.15 K): 72.1 ± 0.55 mPa·s | mass density ([1]; 373.15 K): 1378.6 ± 4 kg/m3 | Glass transition temperature [1]: -49.71 ± 2.1 °C | refractive index ([2]; 293.15 K): 1.5022 ± 0.007 | refractive index ([2]; 298.15 K): 1.50138 ± 0.007 | refractive index ([2]; 303.15 K): 1.50034 ± 0.007 | refractive index ([2]; 308.15 K): 1.49927 ± 0.007 | refractive index ([2]; 313.15 K): 1.49817 ± 0.007 | refractive index ([2]; 318.15 K): 1.49708 ± 0.007 | refractive index ([2]; 323.15 K): 1.49599 ± 0.007

SMILES: Cc1ccc(S(=O)(=O)[O-])cc1.N#CCCn1cc[nH+]c1 [1-(2-cyanoethyl)imidazolium 4-methylbenzenesulfonate]
viscosity ([1]; 303.15 K): 24795 ± 2900 mPa·s | mass density ([1]; 303.15 K): 1266.3 ± 30 kg/m3 | viscosity ([1]; 313.15 K): 6910.9 ± 670 mPa·s | mass density ([1]; 313.15 K): 1259.6 ± 30 kg/m3 | viscosity ([1]; 323.15 K): 2376.6 ± 190 mPa·s | mass density ([1]; 323.15 K): 1253 ± 30 kg/m3 | viscosity ([1]; 333.15 K): 977.44 ± 67 mPa·s | mass density ([1]; 333.15 K): 1247.9 ± 30 kg/m3 | viscosity ([1]; 343.15 K): 459.63 ± 27 mPa·s | mass density ([1]; 343.15 K): 1241.2 ± 29 kg/m3 | viscosity ([1]; 353.15 K): 239.96 ± 13 mPa·s | mass density ([1]; 353.15 K): 1233.7 ± 29 kg/m3 | viscosity ([1]; 363.15 K): 138.89 ± 6.7 mPa·s | mass density ([1]; 363.15 K): 1229.1 ± 29 kg/m3 | viscosity ([1]; 373.15 K): 85.89 ± 4 mPa·s | mass density ([1]; 373.15 K): 1221.5 ± 28 kg/m3 | Glass transition temperature [1]: -57.34 ± 2.1 °C | refractive index ([2]; 293.15 K): 1.54509 ± 0.0072 | refractive index ([2]; 298.15 K): 1.54414 ± 0.0072 | refractive index ([2]; 303.15 K): 1.54297 ± 0.0072 | refractive index ([2]; 308.15 K): 1.54177 ± 0.0072 | refractive index ([2]; 313.15 K): 1.54051 ± 0.0072 | refractive index ([2]; 318.15 K): 1.53926 ± 0.0072 | refractive index ([2]; 323.15 K): 1.53798 ± 0.0072

SMILES: CC(=O)[O-].N#CCCn1cc[nH+]c1 [1-(2-cyanoethyl)imidazolium acetate]
viscosity ([1]; 293.15 K): 108.22 ± 1.7 mPa·s | mass density ([1]; 293.15 K): 1127.7 ± 4.1 kg/m3 | viscosity ([1]; 303.15 K): 55.28 ± 0.49 mPa·s | mass density ([1]; 303.15 K): 1120.5 ± 4.1 kg/m3 | viscosity ([1]; 313.15 K): 31.57 ± 0.3 mPa·s | mass density ([1]; 313.15 K): 1113 ± 4.1 kg/m3 | viscosity ([1]; 323.15 K): 19.79 ± 0.19 mPa·s | mass density ([1]; 323.15 K): 1105.2 ± 4.1 kg/m3 | viscosity ([1]; 333.15 K): 13.32 ± 0.13 mPa·s | mass density ([1]; 333.15 K): 1097.7 ± 4.1 kg/m3 | viscosity ([1]; 343.15 K): 9.483 ± 0.092 mPa·s | mass density ([1]; 343.15 K): 1089.8 ± 4.1 kg/m3 | viscosity ([1]; 353.15 K): 7.118 ± 0.069 mPa·s | mass density ([1]; 353.15 K): 1082 ± 4.1 kg/m3 | viscosity ([1]; 363.15 K): 5.294 ± 0.052 mPa·s | mass density ([1]; 363.15 K): 1073.2 ± 4.1 kg/m3 | viscosity ([1]; 373.15 K): 4.252 ± 0.042 mPa·s | mass density ([1]; 373.15 K): 1062.2 ± 4.1 kg/m3 | Glass transition temperature [1]: -78.12 ± 2.1 °C | refractive index ([2]; 293.15 K): 1.48534 ± 0.007 | refractive index ([2]; 298.15 K): 1.48368 ± 0.007 | refractive index ([2]; 303.15 K): 1.48197 ± 0.007 | refractive index ([2]; 308.15 K): 1.48025 ± 0.007 | refractive index ([2]; 313.15 K): 1.47851 ± 0.007 | refractive index ([2]; 318.15 K): 1.4768 ± 0.007 | refractive index ([2]; 323.15 K): 1.47508 ± 0.007

SMILES: CS(=O)(=O)[O-].N#CCCn1cc[nH+]c1 [1-(2-cyanoethyl)imidazolium methanesulfonate]
Glass transition temperature [1]: -59.40 ± 2.1 °C | refractive index ([2]; 293.15 K): 1.50224 ± 0.007 | refractive index ([2]; 298.15 K): 1.50096 ± 0.007 | refractive index ([2]; 303.15 K): 1.49962 ± 0.007 | refractive index ([2]; 308.15 K): 1.49826 ± 0.007 | refractive index ([2]; 313.15 K): 1.49686 ± 0.007 | refractive index ([2]; 318.15 K): 1.49547 ± 0.007 | refractive index ([2]; 323.15 K): 1.49402 ± 0.007

Next, values leading:

Normal melting temperature [1]: 99.67 ± 2 °C
SMILES: N#CCCn1cc[nH+]c1.O=S(=O)([O-])C(F)(F)F [1-(2-cyanoethyl)imidazolium trifluoromethanesulfonate]

Normal melting temperature [1]: 20.88 ± 2 °C | Glass transition temperature [1]: -73.49 ± 2.1 °C | refractive index ([2]; 293.15 K): 1.48955 ± 0.007 | refractive index ([2]; 298.15 K): 1.48865 ± 0.007 | refractive index ([2]; 303.15 K): 1.48761 ± 0.007 | refractive index ([2]; 308.15 K): 1.48655 ± 0.007 | refractive index ([2]; 313.15 K): 1.48552 ± 0.007 | refractive index ([2]; 318.15 K): 1.48432 ± 0.007 | refractive index ([2]; 323.15 K): 1.48311 ± 0.007
SMILES: Cn1ccnc1.O=S(=O)(O)O [1-methylimidazolium hydrogen sulfate]

Normal melting temperature [1]: -13.48 ± 2 °C
SMILES: N#CCCn1cc[nH+]c1.O=C([O-])C(F)(F)F [1-(2-cyanoethyl)imidazolium trifluoroacetate]
